# Measured values: PubChem BioAssay AID1259411 (Chemical Carcinogenesis Research Information System (CCRIS), 2018)
# The source made the active and inactive calls. How the calls were made is not given here.
# System: rodent carcinogenicity bioassays, tumor incidence
# Test: CCRIS carcinogenicity studies
# In short: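 Archive of carcinogenicity, mutagenicity, tumor promotion and tumor inhibition results drawn from journals, NCI reports and other sources, expert-reviewed; covers 1985-2011 and is no longer updated.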
structure (smiles),measurement,setting,value
Cn1c(N)nc2ncc(-c3ccccc3)cc21,carcinogen call,"Species: HAMSTER, Strain/Sex: RAPID ACETYLATOR CONGENIC/MALE, Route: ORAL, Dose: 75 MG/KG BW/DOSE BY GAVAGE, 2 DOSES/WK FOR 4 WK FOLLOWED BY 1 DOSE/WK FOR 1 WK AND 1 DOSE/2 WK FOR 4 WK, FOLLOWED BY A H",inactive; negative
same,carcinogen call,"Species: HAMSTER, Strain/Sex: SLOW ACETYLATOR CONGENIC/MALE, Route: ORAL, Dose: 75 MG/KG BW/DOSE BY GAVAGE, 2 DOSES/WK FOR 4 WK FOLLOWED BY 1 DOSE/WK FOR 1 WK AND 1 DOSE/2 WK FOR 4 WK, FOLLOWED BY A H",inactive; negative
same,carcinogen call,"Species: MOUSE, Strain/Sex: B6C3F1/MALE, Route: INTRAPERITONEAL, Dose: 0, 0.625 UMOL IN 35 µL DMSO ON D 1, 8, AND 15 AFTER BIRTH (STUDY DURATION: 8 MO)",inactive; negative
same,carcinogen call,"Species: MOUSE, Strain/Sex: B6C3F1/MALE, Route: INTRAPERITONEAL, Dose: 0, 0.625 UMOL IN 35 µL DMSO ON D 1, 8, AND 15 AFTER BIRTH (STUDY DURATION: 12 MO), Tumor Site: Type of Lesion: LIVER: HEPATOCELLULAR ADENOMA",active; positive
same,carcinogen call,"Species: MOUSE, Strain/Sex: B6C3F1/MALE, Route: INTRAPERITONEAL, Dose: 0, 1.25 UMOL IN 35 µL DMSO ON D 1, 8, AND 15 AFTER BIRTH (STUDY DURATION: 8 MO), Tumor Site: Type of Lesion: LIVER: HEPATOCELLULAR ADENOMA",active; positive
same,carcinogen call,"Species: MOUSE, Strain/Sex: B6C3F1/MALE, Route: INTRAPERITONEAL, Dose: 0, 1.25 UMOL IN 35 µL DMSO ON D 1, 8, AND 15 AFTER BIRTH (STUDY DURATION: 12 MO), Tumor Site: Type of Lesion: LIVER: HEPATOCELLULAR ADENOMA, HEPATOCELLULAR CARCINOMA",active; positive
same,carcinogen call,"Species: MOUSE, Strain/Sex: C57/FEMALE, Route: ORAL, Dose: 0, 300 PPM IN HIGH FAT DIET FOR 40 WK, FOLLOWED BY CONTINUOUS FEEDING OF HIGH FAT DIET UNTIL STUDY TERMINATION (STUDY DU, Tumor Site: Type of Lesion: SMALL INTESTINE: ADENOCARCINOMAS OR ADENOMAS",active; positive
same,carcinogen call,"Species: MOUSE, Strain/Sex: C57/MALE, Route: ORAL, Dose: 0, 300 PPM IN HIGH FAT DIET FOR 40 WK, FOLLOWED BY CONTINUOUS FEEDING OF HIGH FAT DIET UNTIL STUDY TERMINATION (STUDY DU, Tumor Site: Type of Lesion: SMALL INTESTINE: ADENOCARCINOMAS OR ADENOMAS, LYMPHATIC SYSTEM: LYMPHOMA",active; positive
same,carcinogen call,"Species: MOUSE, Strain/Sex: CDF1/FEMALE, Route: ORAL, Dose: 0, 0.04% IN THE DIET FOR DURATION OF STUDY (STUDY DURATION: 579 D), Tumor Site: Type of Lesion: HEMATOPOIETIC SYSTEM: LYMPHOMA",active; positive
same,carcinogen call,"Species: MOUSE, Strain/Sex: CDF1/MALE, Route: ORAL, Dose: 0, 0.04% IN THE DIET FOR DURATION OF STUDY (STUDY DURATION: 579 D), Tumor Site: Type of Lesion: HEMATOPOIETIC SYSTEM: LYMPHOMA",active; positive
same,carcinogen call,"Species: MOUSE, Strain/Sex: EU-PIM-1/FEMALE, Route: ORAL, Dose: 0, 0.03% IN DIET FOR 31 WK (STUDY DURATION: 31 WK)",inactive; negative
same,carcinogen call,"Species: MOUSE, Strain/Sex: EU-PIM-1/MALE, Route: ORAL, Dose: 0, 0.03% IN DIET FOR 31 WK (STUDY DURATION: 31 WK)",inactive; negative
same,carcinogen call,"Species: MOUSE, Strain/Sex: NON-TRANSGENIC WILD-TYPE/FEMALE, Route: ORAL, Dose: 0, 0.03% IN DIET FOR 31 WK (STUDY DURATION: 31 WK)",inactive; negative
same,carcinogen call,"Species: MOUSE, Strain/Sex: NON-TRANSGENIC WILD-TYPE/MALE, Route: ORAL, Dose: 0, 0.03% IN DIET FOR 31 WK (STUDY DURATION: 31 WK)",inactive; negative
same,carcinogen call,"Species: MOUSE, Strain/Sex: TRANSGENIC EU-PIM-1/FEMALE, Route: ORAL, Dose: 0, 0.03% IN DIET FOR 31 WK (STUDY DURATION: 31 WK), Tumor Site: Type of Lesion: LYMPHATIC SYSTEM: LYMPHOMA",active; positive
same,carcinogen call,"Species: MOUSE, Strain/Sex: TRANSGENIC EU-PIM-1/MALE, Route: ORAL, Dose: 0, 0.03% IN DIET FOR 31 WK (STUDY DURATION: 31 WK)",inactive; negative
same,carcinogen call,"Species: MOUSE, Strain/Sex: WILD-TYPE/FEMALE, Route: ORAL, Dose: 0, 0.03% IN DIET FOR 31 WK (STUDY DURATION: 31 WK)",inactive; negative
same,carcinogen call,"Species: MOUSE, Strain/Sex: WILD-TYPE/MALE, Route: ORAL, Dose: 0, 0.03% IN DIET FOR 31 WK (STUDY DURATION: 31 WK)",inactive; negative
same,carcinogen call,"Species: RAT, Strain/Sex: F344/FEMALE, Route: ORAL, Dose: 0, 25, 100 PPM IN DIET FOR 104 WK (STUDY DURATION: 104 WK), Dose: 0, 25, 100 PPM IN DIET FOR 104 WK (STUDY DURATION: 104 WK), Tumor Site: Type of Lesion: MAMMARY GLAND: ADENOCARCINOMA",active; positive
same,carcinogen call,"Species: RAT, Strain/Sex: F344/FEMALE, Route: ORAL, Dose: 0, 400 PPM IN DIET FOR 52 WK (STUDY DURATION: 52 WK), Tumor Site: Type of Lesion: MAMMARY GLAND: ADENOCARCINOMA",active; positive
same,carcinogen call,"Species: RAT, Strain/Sex: F344/MALE, FEMALE, Route: MATERNAL MILK, Dose: 200 PPM IN DIET TO MOTHERS FROM D OF MATING TO WEANING, THEN OFFSPRING ON CONTROL DIET FOR 60 WKS (STUDY DURATION: 63 WK",inactive; negative; prostate and colon tumors not enhanced; multiplicity of aberrant crypt
same,carcinogen call,"Species: RAT, Strain/Sex: F344/MALE, Route: ORAL, Dose: 0, 25, 100 PPM IN DIET FOR 104 WK (STUDY DURATION: 104 WK), Dose: 0, 25, 100 PPM IN DIET FOR 104 WK (STUDY DURATION: 104 WK), Tumor Site: Type of Lesion: COLON: CARCINOMA",active; positive
same,carcinogen call,"Species: RAT, Strain/Sex: F344/MALE, Route: ORAL, Dose: 0, 100, 300 PPM IN DIET FOR 40 WK (STUDY DURATION: 40 WK), Dose: 0, 100, 300 PPM IN DIET FOR 40 WK (STUDY DURATION: 40 WK), Tumor Site: Type of Lesion: PROSTATE (VENTRAL): PROSTATIC INTRAEPITHELIAL NEOPLASIA",active; positive
same,carcinogen call,"Species: RAT, Strain/Sex: F344/MALE, Route: ORAL, Dose: 0, 400 PPM IN DIET FOR 52 WK (STUDY DURATION: 52 WK), Tumor Site: Type of Lesion: COLON: ADENOCARCINOMA",active; positive
same,carcinogen call,"Species: RAT, Strain/Sex: F344/MALE, Route: ORAL, Dose: 0, 400 PPM IN DIET FOR 52 WK (STUDY DURATION: 52 WK), Tumor Site: Type of Lesion: PROSTATE (VENTRAL): CARCINOMA",active; positive
same,carcinogen call,"Species: RAT, Strain/Sex: SPRAGUE DAWLEY/FEMALE, 43 D OLD, Route: ORAL, Dose: 75 MG/DOSE, 10 DOSES GIVEN ONCE/D OVER 12 D (STUDY DURATION: 6 MO), Tumor Site: Type of Lesion: MAMMARY GLAND",active; positive (5% incidence)
same,carcinogen call,"Species: RAT, Strain/Sex: SPRAGUE DAWLEY/FEMALE, 150 D OLD, Route: ORAL, Dose: 75 MG/DOSE, 10 DOSES GIVEN ONCE/D OVER 12 D (STUDY DURATION: 6 MO), Tumor Site: Type of Lesion: MAMMARY GLAND",inactive; negative (0% incidence)
same,carcinogen call,"Species: RAT, Strain/Sex: SPRAGUE-DAWLEY/FEMALE, Route: ORAL, Dose: 0, 12.5, 50 PPM IN DIET FOR DURATION OF STUDY (STUDY DURATION: 48 WK), Dose: 0, 12.5, 50 PPM IN DIET FOR DURATION OF STUDY (STUDY DURATION: 48 WK), Tumor Site: Type of Lesion: MAMMARY GLAND: TUMOR",active; positive
same,carcinogen call,"Species: RAT, Strain/Sex: SPRAGUE-DAWLEY/FEMALE, Route: ORAL, Dose: 0, 25, 100, 200 PPM IN DIET FOR 48 WK (STUDY DURATION: 48 WK), Dose: 0, 25, 100, 200 PPM IN DIET FOR 48 WK (STUDY DURATION: 48 WK), Tumor Site: Type of Lesion: MAMMARY GLAND: TUMOR",active; positive
same,carcinogen call,"Species: RAT, Strain/Sex: SPRAGUE-DAWLEY/FEMALE, Route: ORAL, Dose: 0, 25, 100, 200 PPM IN DIET FOR DURATION OF STUDY (STUDY DURATION: 48 WK), Dose: 0, 25, 100, 200 PPM IN DIET FOR DURATION OF STUDY (STUDY DURATION: 48 WK), Tumor Site: Type of Lesion: MAMMARY GLAND: TUMOR",active; positive
same,carcinogen call,"Species: RAT, Strain/Sex: SPRAGUE-DAWLEY/FEMALE, Route: ORAL, Dose: 0, 25, 100 PPM IN DIET FROM WEANING TO 47 WK OF AGE (STUDY DURATION: 47 WK), Dose: 0, 25, 100 PPM IN DIET FROM WEANING TO 47 WK OF AGE (STUDY DURATION: 47 WK), Tumor Site: Type of Lesion: MAMMARY GLAND: TUMOR",active; positive
same,carcinogen call,"Species: RAT, Strain/Sex: SPRAGUE-DAWLEY/FEMALE, Route: ORAL, Dose: 0, 75 MG/KG IN 5 ML CORN OIL 1/D ON DAYS 1-5 AND 8-12 OF STUDY FOLLOWED 2 DAYS LATER BY A HIGH-FAT DIET FOR DURATION OF, Tumor Site: Type of Lesion: MAMMARY GLAND: TUMOR",active; positive
same,carcinogen call,"Species: RAT, Strain/Sex: SPRAGUE-DAWLEY/FEMALE, Route: TRANSPLACENTAL, ORAL, Dose: 0, 100 PPM IN DIET OF MOTHERS BEGINNING 4 WK BEFORE MATING AND CONTINUING THROUGH LACTATION THEN OFFSPRING ADMINISTERED, Tumor Site: Type of Lesion: MAMMARY GLAND: TUMOR",active; positive
same,carcinogen call,"Species: RAT, Strain/Sex: SPRAGUE-DAWLEY/MALE, Route: ORAL, Dose: 0, 25, 100 PPM IN DIET FROM WEANING TO 47 WK OF AGE (STUDY DURATION: 47 WK), Dose: 0, 25, 100 PPM IN DIET FROM WEANING TO 47 WK OF AGE (STUDY DURATION: 47 WK)",inactive; negative
same,carcinogen call,"Species: RAT, Strain/Sex: SPRAGUE-DAWLEY/MALE, Route: TRANSPLACENTAL, ORAL, Dose: 0, 100 PPM IN DIET OF MOTHERS BEGINNING 4 WK BEFORE MATING AND CONTINUING THROUGH LACTATION THEN OFFSPRING ADMINISTERED",inactive; negative
same,carcinogen call,"Species: RAT, Strain/Sex: STRAIN-CD/FEMALE, Route: GAVAGE, Dose: 0, 50 UMOL IN 0.5 ML TRIOCTANOIN 1/WK FOR 8 WK (STUDY DURATION: 49 WK), Tumor Site: Type of Lesion: MAMMARY GLAND: FIBROADENOMA, ADENOCARCINOMA",active; positive
